Laboratory results published in patent US5663331A, “Cephalosporin compounds” (Il-Dong Pharm. Co., Ltd., priority 1992, dated 1997).
Values after ≈ are worked out from the molar mass of the structure shown.

Columns and labels:
Format in all cases: cell-based
[1] = system: Staphylococcus epidermidis ATCC 12228; test: MIC, two-fold dilution method, Staphylococcus epidermidis ATCC 12228; conditions: 10^6 CFU per ml, 37° C., 18 to 20 hours; for Antibacterial Activity (MIC): Muller Hinton Broth; for MIC: ATCC12228, Muller Hinton Broth, read-out: Antibacterial Activity (MIC)
Protocol: (§1) In order to illustrate the usefulness of the invented compounds, the minimal inhibitory concentrations-(MIC) thereof against standard strains were determined and compared with Cefotaxime, a known compound. Also, the in vitro antibacterial activity was determined by a two-fold dilution method as described below: That is, the two-fold serial dilutions of the compound were made and dispersed in Muller Hinton Broth medium. Standard test strain which had the 10^6 CFU per ml was inoculated on the medium, and was incubated at 37° C. for 18 to 20 hours.

[2] = system: Esherichia coli ATCC 25922; test: MIC, two-fold dilution method, Esherichia coli ATCC 25922; conditions: Muller Hinton Broth, 10^6 CFU per ml, 37° C., 18 to 20 hours; for MIC: read-out: Antibacterial Activity (MIC)
Protocol: as §1

[3] = system: Staphylococcus aureus ATCC 65389; test: MIC, two-fold dilution method, Staphylococcus aureus ATCC 65389; conditions: 10^6 CFU per ml, 37° C., 18 to 20 hours; for Antibacterial Activity (MIC): Muller Hinton Broth; for MIC: ATCC65389, Muller Hinton Broth, read-out: Antibacterial Activity (MIC)
Protocol: as §1

[4] = system: Bacillus subtilis ATCC 6633; test: MIC, two-fold dilution method, Bacillus subtilis ATCC 6633; conditions: 10^6 CFU per ml, 37° C., 18 to 20 hours; for Antibacterial Activity (MIC): Muller Hinton Broth; for MIC: ATCC6633, Muller Hinton Broth, read-out: Antibacterial Activity (MIC)
Protocol: as §1

[5] = system: Streptococcus faecalis ATCC 10541; test: MIC, two-fold dilution method, Streptococcus faecalis ATCC 10541; conditions: 10^6 CFU per ml, 37° C., 18 to 20 hours; for Antibacterial Activity (MIC): Muller Hinton Broth; for MIC: Enterococcus faecalis, ATCC10541, Muller Hinton Broth, read-out: Antibacterial Activity (MIC)
Protocol: as §1

[6] = system: Pseudomonas aeurginosa NCTC 10490; test: MIC, two-fold dilution method, Pseudomonas aeurginosa NCTC 10490; conditions: 10^6 CFU per ml, 37° C., 18 to 20 hours; for Antibacterial Activity (MIC): Muller Hinton Broth; for MIC: NCTC10490, Muller Hinton Broth, read-out: Antibacterial Activity (MIC)
Protocol: as §1

[7] = system: Klebsiella pneumoniae ATCC 10031; test: MIC, two-fold dilution method, Klebsiella pneumoniae ATCC 10031; conditions: 10^6 CFU per ml, 37° C., 18 to 20 hours; for Antibacterial Activity (MIC): Muller Hinton Broth; for MIC: ATCC10031, Muller Hinton Broth, read-out: Antibacterial Activity (MIC)
Protocol: as §1

| Compound | Antibacterial Activity (MIC) [1] | Antibacterial Activity (MIC) [2] | Antibacterial Activity (MIC) [3] | Antibacterial Activity (MIC) [4] | Antibacterial Activity (MIC) [5] | Antibacterial Activity (MIC) [6] | Antibacterial Activity (MIC) [7] | MIC [1] | MIC [2] | MIC [3] | MIC [4] | MIC [5] | MIC [6] | MIC [7] |
| --- | --- | --- | --- | --- | --- | --- | --- | --- | --- | --- | --- | --- | --- | --- |
| C#CCO/N=C(\C(=O)NC1C(=O)N2C(C(=O)[O-])=C(CSc3cc[n+](CC=C)c4cc(N5CCNCC5C)c(F)cc34)CS[C@H]12)c1csc(N)n1 (some centres unmarked) [Compound I-52, 7-[(Z)-2-(2-aminothiazol-4-yl)-2-(propargyloxyimino)acetamido]-3-[1-allyl-6-fluoro-7-(2-methylpiperazinyl)quinolinium-4-yl]thiomethyl-3-cephem-4-carboxylate] | 1.56 mg/L | 0.78 mg/L | 3.13 mg/L | 0.39 mg/L | 0.78 mg/L | 1.56 mg/L | 1.56 mg/L | – | – | – | – | – | – | – |
| CO/N=C(\C(=O)NC1C(=O)N2C(C(=O)[O-])=C(CSc3cc[n+](C4CC4)c4cc(N5CCNCC5)c(F)cc34)CS[C@H]12)c1csc(N)n1 (some centres unmarked) [Compound I-5, 7-[(Z)-2-(2-aminothiazol-4-yl)-2-(methoxyimino)acetamido]-3-(1-cyclopropyl-6-fluoro-7-piperazinylquinolinium-4-yl)thiomethyl-3-cephem-4-carboxylate] | – | – | – | – | – | – | – | 0.78 mg/L (≈ 1.12 µM) | 12.5 mg/L (≈ 17.9 µM) | 1.56 mg/L (≈ 2.23 µM) | 0.39 mg/L (≈ 0.558 µM) | 0.39 mg/L (≈ 0.558 µM) | 3.13 mg/L (≈ 4.48 µM) | 0.1 mg/L (≈ 0.143 µM) |
| CN1CCN(c2cc3c(cc2F)c(SCC2=C(C(=O)[O-])N4C(=O)C(NC(=O)/C(=N\OC(C)(C)C(=O)O)c5csc(N)n5)C4SC2)cc[n+]3C)CC1 (centres unmarked) [Compound I-54, 7-[(Z)-2-(2-aminothiazol-4-yl)-2-(2-carboxyprop-2-oxyimino)acetamido]-3-[1-methyl-6-fluoro-7-(N-methylpiperazinyl)quinolinium-4-yl]thiomethyl-3-cephem-4-carboxylate] | – | – | – | – | – | – | – | 3.13 mg/L (≈ 4.12 µM) | 6.25 mg/L (≈ 8.24 µM) | 6.25 mg/L (≈ 8.24 µM) | 0.78 mg/L (≈ 1.03 µM) | 1.56 mg/L (≈ 2.06 µM) | 3.13 mg/L (≈ 4.12 µM) | 3.13 mg/L (≈ 4.12 µM) |
| CCN1CCN(c2cc3c(cc2F)c(SCC2=C(C(=O)[O-])N4C(=O)C(NC(=O)/C(=N\OC)c5csc(N)n5)C4SC2)cc[n+]3C)CC1 (centres unmarked) [Compound I-3, 7-[(Z)-2-(2-aminothiazol-4-yl)-2-(methoxyimino)acetamido]-3-[1-methyl-6-fluoro-7-(1-ethylpiperazinyl)quinolinium-4-yl]thiomethyl-3-cephem-4-carboxylate] | – | – | – | – | – | – | – | 0.1 mg/L (≈ 0.143 µM) | 0.78 mg/L (≈ 1.11 µM) | 0.05 mg/L (≈ 0.0713 µM) | 0.2 mg/L (≈ 0.285 µM) | 0.025 mg/L (≈ 0.0357 µM) | 0.78 mg/L (≈ 1.11 µM) | 0.1 mg/L (≈ 0.143 µM) |
| C=CC[n+]1ccc(SCC2=C(C(=O)[O-])N3C(=O)C(NC(=O)/C(=N\OC)c4csc(N)n4)C3SC2)c2cc(F)c(N3CCN(C)CC3)cc21 (centres unmarked) [Compound I-14, 7-[(Z)-2-(2-aminothiazol-4-yl)-2-(methoxyimino)acetamido]-3-[1-allyl-6-fluoro-7-(N-methylpiperazinyl)quinolinium-4-yl]thiomethyl-3-cephem-4-carboxylate] | – | – | – | – | – | – | – | 0.39 mg/L (≈ 0.547 µM) | 3.13 mg/L (≈ 4.39 µM) | 0.78 mg/L (≈ 1.09 µM) | 0.1 mg/L (≈ 0.14 µM) | 0.2 mg/L (≈ 0.281 µM) | 3.13 mg/L (≈ 4.39 µM) | 1.56 mg/L (≈ 2.19 µM) |
| C=CCO/N=C(\C(=O)NC1C(=O)N2C(C(=O)[O-])=C(CSc3cc[n+](CC)c4cc(N5CCNCC5C)c(F)cc34)CS[C@H]12)c1csc(N)n1 (some centres unmarked) [Compound I-32, 7-[(Z)-2-(2-aminothiazol-4-yl)-2-(allyloxyimino)acetamido]-3-[1-ethyl-6-fluoro-7-(2-methylpiperazinyl)quinolinium-4-yl]thiomethyl-3-cephem-4-carboxylate] | 0.78 mg/L | 0.78 mg/L | 0.39 mg/L | 0.39 mg/L | 0.39 mg/L | 1.56 mg/L | 0.39 mg/L | – | – | – | – | – | – | – |
| C#CCO/N=C(\C(=O)NC1C(=O)N2C(C(=O)[O-])=C(CSc3cc[n+](CC=C)c4cc(N5CCNCC5)c(F)cc34)CS[C@H]12)c1csc(N)n1 (some centres unmarked) [Compound I-49, 7-[(Z)-2-(2-aminothiazol-4-yl)-2-(propargyloxyimino)acetamido]-3-(1-allyl-6-fluoro-7-piperazinylquinolinium-4-yl)thiomethyl-3-cephem-4-carboxylate] | – | – | – | – | – | – | – | 1.56 mg/L (≈ 2.16 µM) | 1.56 mg/L (≈ 2.16 µM) | 1.56 mg/L (≈ 2.16 µM) | 0.39 mg/L (≈ 0.54 µM) | 0.78 mg/L (≈ 1.08 µM) | 1.56 mg/L (≈ 2.16 µM) | 1.56 mg/L (≈ 2.16 µM) |
| C#CCO/N=C(\C(=O)NC1C(=O)N2C(C(=O)[O-])=C(CSc3cc[n+](C4CC4)c4cc(N5CCNCC5C)c(F)cc34)CS[C@H]12)c1csc(N)n1 (some centres unmarked) [Compound I-44, 7-[(Z)-2-(2-aminothiazol-4-yl)-2-(propargyloxyimino)acetamido]-3-[1-cyclopropyl-6-fluoro-7-(2-methylpiperazinyl)quinolinium-4-yl]thiomethyl-3-cephem-4-carboxylate] | 0.2 mg/L | 1.56 mg/L | 0.39 mg/L | 0.05 mg/L | 0.2 mg/L | 1.56 mg/L | 0.78 mg/L | – | – | – | – | – | – | – |
| CC[n+]1ccc(SCC2=C(C(=O)[O-])N3C(=O)C(NC(=O)/C(=N\OC)c4csc(N)n4)C3SC2)c2cc(F)c(N3CCN(C)CC3)cc21 (centres unmarked) [Compound I-10, 7-[(Z)-2-(2-aminothiazol-4-yl)-2-(methoxyimino)acetamido]-3-(1-ethyl-6-fluoro-7-(N-methylpiperazinyl)quinolinium-4-yl]thiomethyl-3-cephem-4-carboxylate] | – | – | – | – | – | – | – | 1.56 mg/L (≈ 2.23 µM) | 12.5 mg/L (≈ 17.8 µM) | 0.39 mg/L (≈ 0.556 µM) | 0.39 mg/L (≈ 0.556 µM) | 1.56 mg/L (≈ 2.23 µM) | 6.25 mg/L (≈ 8.92 µM) | 0.78 mg/L (≈ 1.11 µM) |
| C#CCO/N=C(\C(=O)NC1C(=O)N2C(C(=O)[O-])=C(CSc3cc[n+](CC)c4cc(N5CCN(C)CC5)c(F)cc34)CSC12)c1csc(N)n1 (centres unmarked) [Compound I-46, 7-[(Z)-2-(2-aminothiazol-4-yl)-2-(propargyloxyimino)acetamido]-3-[1-ethyl-6-fluoro-7-(N-methylpiperazinyl)quinolinium-4-yl]thiomethyl-3-cephem-4-carboxylate] | – | – | – | – | – | – | – | 0.39 mg/L (≈ 0.538 µM) | 12.5 mg/L (≈ 17.2 µM) | 0.78 mg/L (≈ 1.08 µM) | 0.78 mg/L (≈ 1.08 µM) | 0.2 mg/L (≈ 0.276 µM) | 6.25 mg/L (≈ 8.62 µM) | 6.25 mg/L (≈ 8.62 µM) |
| CC[n+]1ccc(SCC2=C(C(=O)[O-])N3C(=O)C(NC(=O)/C(=N\OC)c4csc(N)n4)[C@H]3SC2)c2cc(F)c(N3CCNCC3C)cc21 (some centres unmarked) [Compound I-12, 7-[(Z)-2-(2-aminothiazol-4-yl)-2-(methoxyimino)acetamido]-3-[1-ethyl-6-fluoro-7-(2-methylpiperazinyl)quinolinium-4-yl]thiomethyl-3-cephem-4-carboxylate] | 0.2 mg/L | 1.56 mg/L | 0.1 mg/L | 0.1 mg/L | 0.025 mg/L | 1.56 mg/L | 0.39 mg/L | – | – | – | – | – | – | – |
| C#CCO/N=C(\C(=O)NC1C(=O)N2C(C(=O)[O-])=C(CSc3cc[n+](CC=C)c4cc(N5CCN(CC)CC5)c(F)cc34)CSC12)c1csc(N)n1 (centres unmarked) [Compound I-51, 7-[(Z)-2-(2-aminothiazol-4-yl)-2-(propargyloxyimino)acetamido]-3-[1-allyl-6-fluoro-7-(1-ethylpiperazinyl)quinolinium-4-yl]thiomethyl-3-cephem-4-carboxylate] | – | – | – | – | – | – | – | 1.56 mg/L (≈ 2.08 µM) | 0.78 mg/L (≈ 1.04 µM) | 3.13 mg/L (≈ 4.17 µM) | 0.78 mg/L (≈ 1.04 µM) | 1.56 mg/L (≈ 2.08 µM) | 1.56 mg/L (≈ 2.08 µM) | 0.78 mg/L (≈ 1.04 µM) |
| CO/N=C(\C(=O)NC1C(=O)N2C(C(=O)[O-])=C(CSc3cc[n+](C4CC4)c4cc(N5CCNCC5C)c(F)cc34)CS[C@H]12)c1csc(N)n1 (some centres unmarked) [Compound I-8, 7-[(Z)-2-(2-aminothiazol-4-yl)-2-(methoxyimino)acetamido]-3-[1-cyclopropyl-6-fluoro-7-(2-methylpiperazinyl)quinolinium-4-yl]thiomethyl-3-cephem-4-carboxylate] | 0.2 mg/L | 0.78 mg/L | 0.39 mg/L | 0.2 mg/L | 0.2 mg/L | 0.39 mg/L | 0.05 mg/L | – | – | – | – | – | – | – |
| C=CCO/N=C(\C(=O)NC1C(=O)N2C(C(=O)[O-])=C(CSc3cc[n+](CC=C)c4cc(N5CCN(C)CC5)c(F)cc34)CSC12)c1csc(N)n1 (centres unmarked) [Compound I-34, 7-[(Z)-2-(2-aminothiazol-4-yl)-2-(allyloxyimino)acetamido]-3-[1-allyl-6-fluoro-7-(N-methylpiperazinyl)quinolinium-4-yl]thiomethyl-3-cephem-4-carboxylate] | – | – | – | – | – | – | – | 1.56 mg/L (≈ 2.11 µM) | 3.13 mg/L (≈ 4.24 µM) | 1.56 mg/L (≈ 2.11 µM) | 0.78 mg/L (≈ 1.06 µM) | 0.78 mg/L (≈ 1.06 µM) | 6.25 mg/L (≈ 8.46 µM) | 1.56 mg/L (≈ 2.11 µM) |
